What follows are compounds tested against T1, human recombinant CRF-1 receptor (Homo sapiens, UniProt P34998) (assay: CRF-1 receptor antagonism, HTRF cAMP assay in CHO cells in the presence of 1 nM CRF). Conditions: CHO cells expressing human recombinant CRF-1; inhibition of the effect of 1 nM CRF on cAMP.
T1 construct: expressed in transfected cells; host or cells: CHO cells (G418-selected)
T1 sequence (P34998 24-415): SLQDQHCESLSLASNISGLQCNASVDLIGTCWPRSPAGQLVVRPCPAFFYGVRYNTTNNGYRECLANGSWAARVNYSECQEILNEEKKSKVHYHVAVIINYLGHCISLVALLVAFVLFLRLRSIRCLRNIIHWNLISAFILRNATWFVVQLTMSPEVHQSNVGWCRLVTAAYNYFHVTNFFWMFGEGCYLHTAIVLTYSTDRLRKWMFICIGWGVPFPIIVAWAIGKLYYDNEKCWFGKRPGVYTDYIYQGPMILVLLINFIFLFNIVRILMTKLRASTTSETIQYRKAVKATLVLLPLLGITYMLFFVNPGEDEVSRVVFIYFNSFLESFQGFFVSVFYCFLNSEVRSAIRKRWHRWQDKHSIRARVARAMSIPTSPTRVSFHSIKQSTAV
Type: cell-based
Method: The CRF-1 or CRF-2α receptor antagonistic activity of the agents of the invention has been determined in vitro in the following assay:
Chinese hamster ovary (CHO) cells expressing either the human recombinant CRF-1 or CRF-2a receptors (Chen et al., Proc Natl Acad Sci USA 90, 8967-8971, 1993; Liaw et al., Endocrinology 137, 72-77, 1996) are propagated in Dulbecco's modified Eagle medium supplemented with 10% foetal calf serum, non-essential amino acids, 100 U/ml penicillin, 100 mg/l streptomycin and 1 g/l geneticin (G418). For cyclic AMP determinations the Homogeneous Time-Resolved Fluoresce (HTRF) cAMP dynamic 2 kit (Cisbio International, France) was used as per manufacturers' instructions. CHO cells, previously cryopreserved, were thawed, centrifuged for 7 mins at 1200 rpm and resuspended in serum free media, then pipetted out onto clear bottomed black tissue culture treated 384-well microtitre plates (Corning Inc, US) at 2,000 cells per well. Compounds of the invention, prepared in DMSO, and subsequently diluted 50 fold in assay buffer (1× Hanks balanced salt solution, 0.2% (w/v) bovine serum albumin, 1.7 mM isobutylmethylxanthine and 10 mM Hepes, pH 7.4) are then added onto the cell containing plate where a further 2 fold dilution is performed and incubated for 15 min. Following incubation, buffer containing a 5 times final concentration of agonist is added to the plate and incubated for 30 min. Finally, d2 dye labelled cAMP and cryptate labeled anti-cAMP antibody, both made in lysis buffer, are added to the plate followed by a settling period of 1 hour. During the settling period cAMP produced by the cells competes with the d2 labelled cAMP for the anti-cAMP cryptate. The plate is read on the Pherastar (BMG, Germany). Increasing levels of endogenous cAMP produced by cells can be followed by a decrease of fluorescent signal and vice versa. Values represented by a change in arbitrary fluorescence units are converted into cAMP concentrations by use of a standard curve the reagents for which are supplied with the kit. Antagonist dose response curves (1 nM-30 μM) are constructed in the presence of 1 nM CRF. IC50 values of antagonists are calculated by fitting the percent inhibition of the effect of CRF by increasing concentrations of the antagonists. The fit is performed using the nonlinear logistic function of the Activitybase software package v 5.4.5.27 (IDBS, UK).

Row | IC50 | Compound
1 | 19 nM | Cc1ncccc1NC[C@H]1CC[C@H](NC(=O)c2cc(C(F)(F)F)ccc2Cl)CC1 [Example 1.13, Trans-2-Chloro-N-{4-[(2-methyl-pyridin-3-ylamino)-methyl]-cyclohexyl}-5-trifluoromethyl-benzamide]
2 | 113 nM | Cc1nn(C[C@H]2CC[C@H](NC(=O)c3cc(C(F)(F)F)ccc3Cl)CC2)c(C)c1Cl [Example 21.8, 2-Chloro-N-[4-(4-chloro-3,5-dimethyl-pyrazol-1-ylmethyl)-cyclohexyl]-5-trifluoromethyl-benzamide]
3 | 22 nM | Cc1cc(C)n(C[C@H]2CC[C@H](NC(=O)c3cc(C(F)(F)F)ccc3Cl)CC2)n1 [Example 7, Trans-2-chloro-N-[4-(3,5-dimethyl-pyrazol-1-ylmethyl)-cyclohexyl]-5-trifluoromethyl-benzamide]
4 | 31 nM | Cc1nc(NC[C@H]2CC[C@H](NC(=O)c3cc(Cl)cnc3Cl)CC2)sc1C [Example 1.18, Trans-2,5-Dichloro-N-{4-[(4,5-dimethyl-thiazol-2-ylamino)-methyl]-cyclohexyl}-nicotinamide]
5 | 69 nM | Cn1cc(-c2ccccc2)c(NC[C@H]2CC[C@H](NC(=O)c3cc(C(F)(F)F)ccc3Cl)CC2)n1 [Example 19.101, Trans-2-Chloro-N-{4-[(1-methyl-4-phenyl-1H-pyrazol-3-ylamino)-methyl]-cyclohexyl}-5-trifluoromethyl-benzamide]
6 | 17 nM | O=C(N[C@H]1CC[C@H](CNc2n[nH]c3cccc(F)c23)CC1)c1cc(C(F)(F)F)ccc1Cl [Example 19.63, Trans-2-chloro-N-(4-((4-fluoro-1H-indazol-3-ylamino)methyl)cyclohexyl)-5-(trifluoromethyl) benzamide]
7 | 50 nM | O=C(N[C@H]1CC[C@H](CNc2ccccc2)CC1)c1cc(C(F)(F)F)ccc1Cl [Example 4.33, Trans-2-Chloro-N-(4-phenylaminomethyl-cyclohexyl)-5-trifluoromethyl-benzamide]
8 | 137 nM | O=C(N[C@H]1CC[C@H](CNc2ccccc2)CC1)c1cccc(Cl)c1 [Example 12, Trans-3-Chloro-N-(4-phenylaminomethyl-cyclohexyl)-benzamide]
9 | 57 nM | Cc1[nH]nc(NC[C@H]2CC[C@H](NC(=O)c3cc(C(F)(F)F)ccc3Cl)CC2)c1-c1ccc(Cl)cc1 [Example 19.91, Trans-2-chloro-N-(4-((4-(4-chlorophenyl)-5-methyl-1H-pyrazol-3-ylamino)methyl)cyclohexyl)-5-(trifluoromethyl) benzamide]
10 | 187 nM | Cc1ncc(Cl)cc1C(=O)N[C@H]1CC[C@H](Cn2nc(C(F)(F)F)cc2C)CC1 [Example 22.7, Trans-5-Chloro-2-methyl-N-[4-(5-methyl-3-trifluoromethyl-pyrazol-1-ylmethyl)-cyclohexyl]-nicotinamide]
11 | 84 nM | COc1ncc(C)cc1NC[C@H]1CC[C@H](NC(=O)c2cc(C(F)(F)F)ccc2Cl)CC1 [Example 19.56, Trans-2-chloro-N-(4-((2-methoxy-5-methylpyridin-3-ylamino)methyl)cyclohexyl)-5-(trifluoromethyl) benzamide]
12 | 61 nM | O=C(N[C@H]1CC[C@H](CNc2cc(-c3ccc(F)cc3)n[nH]2)CC1)c1cc(C(F)(F)F)ccc1Cl [Example 4.11, Trans-2-Chloro-N-(4-{[5-(4-fluoro-phenyl)-2H-pyrazol-3-ylamino]-methyl}-cyclohexyl)-5-trifluoromethyl-benzamide]
13 | 78 nM | CCCc1[nH]nc(NC[C@H]2CC[C@H](NC(=O)c3cc(C(F)(F)F)ccc3Cl)CC2)c1Br [Example 19.76, Trans-N-(4-((4-bromo-5-propyl-1H-pyrazol-3-ylamino)methyl)cyclohexyl)-2-chloro-5-(trifluoromethyl) benzamide]
14 | 66 nM | Cc1ccc(NC[C@H]2CC[C@H](NC(=O)c3cc(C(F)(F)F)ccc3Cl)CC2)nc1 [Example 2.8, Trans-2-Chloro-N-{4-[(5-methyl-pyridin-2-ylamino)-methyl]-cyclohexyl}-5-trifluoromethyl-benzamide]
15 | 63 nM | O=C(N[C@H]1CC[C@H](CNc2ccccc2Cl)CC1)c1cc(C(F)(F)F)ccc1Cl [Example 2.26, Trans-2-Chloro-N-{4-[(2-chloro-phenylamino)-methyl]-cyclohexyl}-5-trifluoromethyl-benzamide]
16 | 199 nM | C[C@@H]1C[C@@H](NC(=O)c2cc(C(F)(F)F)ccc2Cl)CC[C@@H]1CNc1cc(-c2ccc(F)cc2)[nH]n1 (racemic) [Example 1.35a, (+/−)-2-Chloro-N-((1S,3R,4S)-4-{[5-(4-fluoro-phenyl)-1H-pyrazol-3-ylamino]-methyl}-3-methyl-cyclohexyl)-5-trifluoromethyl-benzamide]
17 | 3230 nM | O=C(N[C@H]1CC[C@@H](CNc2cc(-c3ccc(F)cc3)n[nH]2)CC1)c1cc(C(F)(F)F)ccc1Cl [Example 14, Cis-2-Chloro-N-(4-{[5-(4-fluoro-phenyl)-2H-pyrazol-3-ylamino]-methyl}-cyclohexyl)-5-trifluoromethyl-benzamide]
18 | 47 nM | O=C(N[C@H]1CC[C@H](CNc2cc(C3CC3)n[nH]2)CC1)c1cc(C(F)(F)F)ccc1Cl [Example 8, Trans-2-Chloro-N-{4-[(5-cyclopropyl-2H-pyrazol-3-ylamino)-methyl]-cyclohexyl}-5-trifluoromethyl-benzamide]
19 | 143 nM | Cc1ncc(Cl)cc1C(=O)N[C@H]1CC[C@H](CNc2n[nH]c3c2CCCC3)CC1 [Example 19.55, Trans-5-chloro-2-methyl-N-(4-((4,5,6,7-tetrahydro-1H-indazol-3-ylamino)methyl)cyclohexyl) nicotinamide]
20 | 39 nM | Cc1cccc(NC[C@H]2CC[C@H](NC(=O)c3cc(C(F)(F)F)ccc3Cl)CC2)n1 [Example 2.9, Trans-2-Chloro-N-{4-[(6-methyl-pyridin-2-ylamino)-methyl]-cyclohexyl}-5-trifluoromethyl-benzamide]
21 | 70 nM | O=C(N[C@H]1CC[C@H](CNc2cccc3ncccc23)CC1)c1cccc(C(F)(F)F)c1 [Example 13, Trans-N-[4-(Quinolin-5-ylaminomethyl)-cyclohexyl]-3-trifluoromethyl-benzamide]
22 | 76 nM | Cc1noc(NC[C@H]2CC[C@H](NC(=O)c3cc(C(F)(F)F)ccc3Cl)CC2)c1C [Example 19.102, Trans-2-Chloro-N-{4-[(3,4-dimethyl-isoxazol-5-ylamino)-methyl]-cyclohexyl}-5-trifluoromethyl-benzamide]
23 | 28 nM | CCc1cncc(NC[C@H]2CC[C@H](NC(=O)c3cc(C(F)(F)F)ccc3Cl)CC2)c1 [Example 19.53, Trans-2-chloro-N-(4-((5-ethylpyridin-3-ylamino)methyl)cyclohexyl)-5-(trifluoromethyl) benzamide]
24 | 90 nM | O=C(N[C@H]1CC[C@H](CNc2n[nH]c3ccc(F)cc23)CC1)c1cc(C(F)(F)F)ccc1Cl [Example 19.62, Trans-2-chloro-N-(4-((5-fluoro-1H-indazol-3-ylamino)methyl)cyclohexyl)-5-(trifluoromethyl) benzamide]
25 | 43 nM | CCc1[nH]nc(NC[C@H]2CC[C@H](NC(=O)c3cc(C(F)(F)F)ccc3Cl)CC2)c1C [Example 19.117, Trans-2-Chloro-N-{4-[(5-ethyl-4-methyl-1H-pyrazol-3-ylamino)-methyl]-cyclohexyl}-5-trifluoromethyl-benzamide]
26 | 66 nM | Cc1ncc(Cl)cc1C(=O)N[C@H]1CC[C@H](CNc2nc(C)c(C)s2)CC1 [Example 5.14, Trans-5-Chloro-N-{4-[(4,5-dimethyl-thiazol-2-ylamino)-methyl]-cyclohexyl}-2-methyl-nicotinamide]
27 | 80 nM | [2H]C([2H])([2H])c1ncc(NC[C@H]2CC[C@H](NC(=O)c3cc(C(F)(F)F)ccc3Cl)CC2)cc1Cl [Example 19.104, Trans-2-Chloro-N-{4-[(5-chloro-6-d3-methyl-pyridin-3-ylamino)-methyl]-cyclohexyl}-5-trifluoromethyl-benzamide]
